Results taken from article PMC7272640, “Molecular docking, synthesis and biological evaluation of Vascular Endothelial Growth Factor (VEGF) B based peptide as antiangiogenic agent targeting the second domain of the Vascular Endothelial Growth Factor Receptor 1 (VEGFR1D2) for anticancer application” (Signal Transduction and Targeted Therapy, 2020).
Where a SMILES comes first, the peptide text is derived from it.

Columns and labels:
[1] = tested on: 4T1 mammary carcinoma cells; type: cell-based, murine
Description: 2× 10^3 HUVEC and 4T1 cell-line were cultured in DMEM medium supplemented with 10% FBS at 37 °C with 5% CO2 in 96-well plate. After 24 h, The cells were incubated in the media supplemented with 2% FBS, different concentrations (0, 0.015, 0.03, 0.061 μM) of VGB3 in the presence of (0.03 μg.ml^-1) VEGF-A (Sigma, St. Louis, MO) for 24 and 48 respectively. Then, cell proliferation was quantified by 3-(4,5–dimethylthiazol-2-yl)-2 ,5-diphenyl tetrazolium bromide (MTT) (Sigma, St. Louis, MO) solution (5 mg/mL) in PBS (pH 7.4) was added to each well and the plates were incubated in the dark at 37 °C for 4 h. Then the insoluble purple formazan product was dissolved by dimethyl sulfoxide (DMSO). Absorbance was measured at 570 nm using an ELISA plate reader. The assay was performed in triplicate.

HUVEC [2] = assay: Wound healing assay (HUVEC migration); type: cell-based, human; settings: compared with control; VGB3 0, 0.015, 0.03, 0.061 μM, 0.03 μg/ml VEGF-A, 2% FBS, 24 h
Description: 3 × 10^3 HUVECs were grown to confluence in 96-well plate. The monolayer was mechanically wounded using a sterile pipette tip followed by washing with PBS. The cells were incubated in the serum-starved DMEM medium containing 2% FBS and different concentrations (0, 0.015, 0.03, 0.061 μM) of VGB3 in the presence of (0.03 μg.ml^-1) VEGF-A for 24 h. Then HUVECs were washed with PBS two times and fixed using 4% paraformaldehyde at room temperature. After staining the cells with Giemsa, photographs were taken under a microscope (scale bar: 20 μm; Olympus BX-51, Japan) immediately and after 24 h incubation at the same location. Data are expressed as the average percentage wound closure for each group (n=6) of initial migrated cells at time 0 (T0), or as the percentage inhibition compared with a time-matched control. The wound area (the open area of the scratch) was quantified using ImageJ: (1 - (wound area at 24 h / wound area at 0 h))×100.

HUVEC [3] = assay: HUVEC Cytodex 3D bead sprouting assay; type: cell-based, human; settings: HUVEC Cytodex beads in collagen gel; VGB3 0, 0.015, 0.03, 0.061 μM; VEGF (0.75 pM; method: 0.03 μg/ml VEGF-A); 24 h
Description: The fibrin or collagen sprouting angiogenesis assay was performed as previously described. Type I collagen was obtained as previously reported. HUVECs were allowed to attach to Cytodex microcarrier beads (Amersham Pharmacia Biotech, Sweden) by incubation in DMEM medium with 10% FBS for 4 h at 37 °C in 5% CO2 (60 μL of […] Cytodex beads were coated with 400 μl of HUVECs). EC-covered beads were embedded into the collagen gel under sodium bicarbonate conditions (Sigma, St. Louis, Missouri, USA), distributed in 96-well plates (100 μl/well), and placed in a 37 °C, 5% CO2 incubator for 30 min. Then DMEM supplemented with 2% FBS with a range of concentrations (0, 0.015, 0.03, 0.061 μM) of VGB3 in the presence of (0.03 μg.ml^-1) VEGF-A were added on top of the collagen gel. After 24 h, angiogenesis was monitored microscopically. All the capillary-like structures were photographed using an inverted microscope (Olympus BX-51, Japan) with a scale bar of 20 μm, and the number of sprouts grown on beads was quantified by ImageJ software. The assays were performed in triplicate.

[4] = tested on: 4T1 mammary carcinoma tumor; assay: In vivo antitumor efficacy, 4T1 mammary carcinoma tumor model; design: species or system Female BALB/c mice
Description: (§1) Female BALB/c mice (5–7 weeks) were purchased from the Laboratory Animal Center of the Iran Pasteur Institute and maintained under standardized environmental conditions: 12 h light-dark phases, with free access to food and water. For treatment with VGB3, Tumor cells (4T1; 1×10^6 cells/500 μl or 1×10^5 cells/50 μl) were injected subcutaneously into the right flanks of mice (n=3–5). To generate the metastatic model, 4T1 tumor models were sterilized, excised from the breast cancer-bearing BALB/c mice, cut into pieces of <0.3 cm3, and subcutaneously implanted into the animals' right flanks under ketamine (100 mg/kg, i.p.) and xylazine (10 mg/kg, i.p.) anesthesia. Animals carrying tumors of size ~100mm3 were randomized to 6 mice/group (n=6). The treatment groups received 0.02, 0.1, 0.2 or 0.5 mg/kg of VGB3 on alternate days and the control group received PBS i.v. into the mice for 19 days from day 13. The tumor volume was measured every 5 days by a digital Vernier caliper (Mitutoyo, Japan), using the following formula: v=a^2×b×0.52 (where a is the shortest and b is the longest diameter). All studies were performed under the guidelines and with the approval of the Institutional Animal Care and Use Committee (IACUC) of Tehran University of Medical Sciences.

[5] = Body weight of tumor-bearing mice; type: in vivo, Female BALB/c mice; settings: VGB3 0.02-0.5 mg/kg i.v., day 13 till 31; two-way ANOVA
Description: as §1

IC50 ([1]; 48 h): 30 nM
IC50 fold lower than that of VEGFR1D2 fragments ([1]; VGB3 IC50 30 nM in 4T1 vs ~180 nM for VEGFR1D2 fragments in HUVEC (ref 3)): 6 fold
SMILES: CC(C)C[C@@H]1NC(=O)CNC(=O)[C@H](CC(=O)O)NC(=O)[C@H](CC(=O)O)NC(=O)[C@@H]2CCCN2C(=O)[C@@H]2CCCN2C(=O)[C@H](CCCNC(=N)N)NC(=O)[C@@H](NC(=O)[C@@H](N)CCC(=O)O)CSSC[C@@H](C(=O)O)NC1=O [VGB3] (HELM PEPTIDE1{E.C.R.P.P.D.D.G.L.C}$PEPTIDE1,PEPTIDE1,2:R3-10:R3$$$V2.0)
migration of wounded HUVEC monolayers (HUVEC [2]): inhibits migration of wounded HUVEC monolayers compared with the control
angiogenesis in vitro (sprouting) (HUVEC [3]): inhibits angiogenesis in vitro
inhibitory effects on tumor growth and angiogenesis compared with bevacizumab ([4]; VGB3 0.2 mg/kg i.v. once in every 2 days vs reported bevacizumab 2 mg/kg, twice per week): definitely higher
tumor growth inhibition vs PBS control ([4]; i.v., alternate days, 19 days from day 13, n = 6, dose of the statement not specified): Significant inhibition of tumor growth
body weight differences vs PBS control [5]: no significant (NS) differences
